Assay results as given in patent publication US20240117417A1, “CELL ENGINEERING COMPOSITIONS AND METHODS USING FLUOROGENIC OLIGONUCLEOTIDE SIGNALING PROBES AND FLOW CYTOMETRY” (Secondcell Bio, LLC, priority 2021, published 2024).
Counter-ions that a name gives are not always drawn. Like-named read-outs stand apart in the source and are kept apart here.

How the values were obtained:
[1] = tested on: GABAA receptor ion channel subunit combinations α1β3γ2s, α2β3γ2s, α3β3γ2s or α5β3γ2s; assay: HTS of LOPAC library on the panel of GABAA cell lines, fluorescent membrane potential cell-based assay
Experimental: Production of cell lines: Each gene of interest was subcloned into an independent mammalian expression vector containing a detection tag and drug selectable marker and transfected into HEK293T and CHO cells cultured using DMEM supplemented with 50 mL fetal bovine serum, a 4 mM L-Glutamine, 10 mM Hepes pH 7.4. After 1 to 3 days cells were transferred to fresh media containing mild selective pressure for 7 to 14 days. On the day of the experiment, each well of four to six 24-well tissue culture plates was plated with 200 ul to 400 ul of transfected cells at 1.25 to 2×10^6 cells/mL in serum-free media and exposed to differentially-labeled signaling probes that can hybridize with the expression products. For each well, 1.7 to 2.5 uL of each probe at a concentration of 2.5 to 5 uM was added to 50 uL of serum free media in tube A and 0.3 to 0.75 uL of transfection reagent, using Lipofectamine for HEK cells (Thermo Fisher 18324) and jetPEI for CHO (Polyplus Transfection 101) was added to tube B. The contents of tubes A and B were mixed and incubated at room temperature for 25 to 30 minutes prior to addition to the well. Following a 1 to 2 hour incubation at 37° C. in a tissue culture incubator, serum-free media was added to the well up to a total volume of 1 mL. The plates were spun at 2,000 RPM for 4 minutes. 750 uL of media was aspirated and replaced with 250 uL of fresh serum-free media. The cells were incubated for an additional 2 to 2.5 hours then used to isolate individual positive cells using Beckman Coulter Epic Altra or Becton Dickinson FACS Aria flow cytometers.
(§1) Cell-based Assays: Functional testing using fluorescent cell-based assays in the absence of any antibiotic-mediated selectable pressure was performed over time (typically for at least 4 to 6 weeks) to identify inherently stable clones. Commonly available fluorescent membrane potential and calcium flux kits and reagents were used for fluorescent cell-based assays in 96-well and 384-well plates using the Molecular Devices FLIPR 3 and Hamamatsu FDSS 6000 plate readers as described (Shekdar 2011; Shekdar and Sawchuk 2012; Shekdar and Venkatachalan 2012, Shekdar 2017). Electrophysiology of ion channel cell lines was obtained using the Nanion Technologies Patchliner patch clamp system. The patch clamp recordings were conducted according to Nanion's standard procedure (Obergrussberger 2014). Currents were measured using the whole-cell configuration. The extracellular solution contained the following: 140 mM NaCl, 4 mM KCl, 1 mM MgCl2, 2 mM CaCl2), 5 mM glucose, 10 mM Hepes, pH 7.4 (adjusted with NaOH). The intracellular solution for sodium current recordings contained the following: 50 mM CsCl, 10 mM NaCl, 60 mM CsF, 20 mM EGTA, 10 mM Hepes, pH 7.2 (adjusted with CsOH). For transient transfection studies, Fugene 6 was used to transfect expression plasmid into cells cultured as above and cells were assayed three days post-transfection.

CFTR = assay: functional cell-based assay of the CFTR cell line (response to Forskolin); settings: FIG. 22A left panel, read-out: EC50 value, dose-response curve for the CFTR cell line
Experimental: Production of cell lines: Each gene of interest was subcloned into an independent mammalian expression vector containing a detection tag and drug selectable marker and transfected into HEK293T and CHO cells cultured using DMEM supplemented with 50 mL fetal bovine serum, a 4 mM L-Glutamine, 10 mM Hepes pH 7.4. After 1 to 3 days cells were transferred to fresh media containing mild selective pressure for 7 to 14 days. On the day of the experiment, each well of four to six 24-well tissue culture plates was plated with 200 ul to 400 ul of transfected cells at 1.25 to 2×10^6 cells/mL in serum-free media and exposed to differentially-labeled signaling probes that can hybridize with the expression products. […]
(§2) Cell-based Assays: Functional testing using fluorescent cell-based assays in the absence of any antibiotic-mediated selectable pressure was performed over time (typically for at least 4 to 6 weeks) to identify inherently stable clones. Commonly available fluorescent membrane potential and calcium flux kits and reagents were used for fluorescent cell-based assays in 96-well and 384-well plates using the Molecular Devices FLIPR 3 and Hamamatsu FDSS 6000 plate readers as described (Shekdar 2011; Shekdar and Sawchuk 2012; Shekdar and Venkatachalan 2012, Shekdar 2017). […] Currents were measured using the whole-cell configuration. […]

[2] = tested on: salty taste of sodium chloride; assay: human sensory taste testing, pairwise comparisons; assay type: in vivo; settings: pairwise comparisons of 45 mM NaCl+15 pg STE1/mL
Experimental: The sensory studies used pairwise comparisons of 45 mM NaCl+15 pg STE1/mL using a human sensory taste testing protocol approved by an institutional review board, 13 out of 15 participants selected the sample containing STE1 as more salty.

proteolyzed αβγ-ENaC = assay: HTS of a compound library against proteolyzed ENaC cell line; assay type: cell-based
Experimental: as §1, with “The intracellular solution for sodium current recordings contained the following: 50 mM CsCl, 10 mM NaCl, 60 mM CsF, 20 mM EGTA, 10 mM Hepes, pH 7.2 (adjusted with CsOH). For transient transfection studies, Fugene 6 was used to transfect expression plasmid into cells cultured as above and cells were assayed three days post-transfection.” left out
(§3) Finally, Chromovert® Technology was used to create a cell line for ENaC. […] One potentiator identified during HTS of proteolyzed ENaC was assessed in human sensory studies where it was confirmed to enhance the salty taste of sodium chloride, as shown in FIG. 23E.

αβγ-ENaC = molecular target: T1, αβγ-ENaC (Homo sapiens, UniProt P37088+P51168+P51170); assay: cell-based assay selective for αβγ-ENaC activity (response to sodium increase); settings: 75 mM increase in sodium concentration, FIG. 23B right panel
T1 construct: expressed in transfected cells
T1 sequence (P51170 whole entry): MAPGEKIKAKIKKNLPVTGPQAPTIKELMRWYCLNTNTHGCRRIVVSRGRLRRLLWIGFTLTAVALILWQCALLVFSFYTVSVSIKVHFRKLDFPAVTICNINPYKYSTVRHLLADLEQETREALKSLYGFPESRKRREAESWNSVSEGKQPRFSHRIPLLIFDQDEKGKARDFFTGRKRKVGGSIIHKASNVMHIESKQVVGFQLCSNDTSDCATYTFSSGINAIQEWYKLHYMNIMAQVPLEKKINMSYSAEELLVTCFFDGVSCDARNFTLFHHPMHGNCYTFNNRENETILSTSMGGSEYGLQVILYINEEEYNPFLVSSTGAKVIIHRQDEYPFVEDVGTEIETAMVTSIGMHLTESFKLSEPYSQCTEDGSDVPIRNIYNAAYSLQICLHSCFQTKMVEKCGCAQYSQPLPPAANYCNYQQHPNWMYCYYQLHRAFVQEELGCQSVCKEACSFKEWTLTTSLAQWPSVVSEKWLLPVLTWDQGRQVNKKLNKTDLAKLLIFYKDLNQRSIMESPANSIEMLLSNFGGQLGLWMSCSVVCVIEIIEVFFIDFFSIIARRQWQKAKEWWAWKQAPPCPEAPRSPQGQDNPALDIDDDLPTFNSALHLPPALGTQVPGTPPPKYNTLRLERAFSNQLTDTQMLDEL
T1 sequence (P51168 whole entry): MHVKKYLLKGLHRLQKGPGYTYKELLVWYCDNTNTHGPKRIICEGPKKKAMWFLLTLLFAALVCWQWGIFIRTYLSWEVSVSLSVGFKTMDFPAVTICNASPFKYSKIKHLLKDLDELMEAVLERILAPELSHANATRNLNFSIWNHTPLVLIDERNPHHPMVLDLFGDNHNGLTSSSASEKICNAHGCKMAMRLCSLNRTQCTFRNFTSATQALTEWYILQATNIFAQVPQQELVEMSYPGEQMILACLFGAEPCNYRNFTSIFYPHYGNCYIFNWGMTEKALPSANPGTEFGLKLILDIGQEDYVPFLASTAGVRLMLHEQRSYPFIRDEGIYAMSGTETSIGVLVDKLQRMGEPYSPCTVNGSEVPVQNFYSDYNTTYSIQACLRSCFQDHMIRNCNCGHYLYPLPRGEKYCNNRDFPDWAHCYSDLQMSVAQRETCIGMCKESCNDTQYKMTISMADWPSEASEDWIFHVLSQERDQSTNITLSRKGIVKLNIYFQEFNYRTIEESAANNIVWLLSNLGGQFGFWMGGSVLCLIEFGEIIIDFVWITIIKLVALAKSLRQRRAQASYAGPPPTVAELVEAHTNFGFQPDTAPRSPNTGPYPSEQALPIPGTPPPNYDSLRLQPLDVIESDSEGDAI
T1 sequence (P37088 whole entry): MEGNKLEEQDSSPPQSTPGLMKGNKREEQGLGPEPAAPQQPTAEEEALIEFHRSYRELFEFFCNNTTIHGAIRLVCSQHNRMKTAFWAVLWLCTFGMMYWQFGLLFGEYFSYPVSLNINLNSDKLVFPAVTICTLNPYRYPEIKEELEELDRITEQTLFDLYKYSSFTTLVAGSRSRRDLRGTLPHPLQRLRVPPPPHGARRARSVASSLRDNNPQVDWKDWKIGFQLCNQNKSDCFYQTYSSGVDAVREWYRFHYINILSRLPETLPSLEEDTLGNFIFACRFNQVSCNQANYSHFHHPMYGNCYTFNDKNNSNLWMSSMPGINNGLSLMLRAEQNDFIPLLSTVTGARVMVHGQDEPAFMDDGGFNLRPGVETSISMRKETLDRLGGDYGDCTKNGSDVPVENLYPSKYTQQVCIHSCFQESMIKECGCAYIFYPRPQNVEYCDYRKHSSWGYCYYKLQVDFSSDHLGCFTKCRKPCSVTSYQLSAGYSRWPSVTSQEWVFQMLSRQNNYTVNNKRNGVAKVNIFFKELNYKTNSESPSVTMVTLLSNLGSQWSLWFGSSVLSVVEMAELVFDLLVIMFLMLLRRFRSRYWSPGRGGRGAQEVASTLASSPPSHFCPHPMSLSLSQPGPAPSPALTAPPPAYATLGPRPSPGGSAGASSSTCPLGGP
Experimental: Production of cell lines: Each gene of interest was subcloned into an independent mammalian expression vector containing a detection tag and drug selectable marker and transfected into HEK293T and CHO cells cultured using DMEM supplemented with 50 mL fetal bovine serum, a 4 mM L-Glutamine, 10 mM Hepes pH 7.4. After 1 to 3 days cells were transferred to fresh media containing mild selective pressure for 7 to 14 days. […]
as §2, §3

[3] = LOPAC (Sigma 1280) screen on panel of four GABAA cell lines

Compound	HTS hit: activated at least one of the GABAA cell lines at least as much as GABA itself [1, 3]	other results
C[C@]12CC[C@@H](O)C[C@@H]1CC[C@@H]1[C@@H]2CC[C@]2(C)[C@@H](C(=O)CO)CC[C@@H]12 [3-alpha, 21-dihydroxy-5-alpha-pregnan-20-one]	activated at least one of the cell lines at least as much as GABA itself	
CC(=O)[C@H]1CC[C@H]2[C@@H]3CC[C@H]4C[C@H](O)CC[C@]4(C)[C@H]3CC[C@]12C [5-alpha-pegnan-3alpha-ol-20-one]	activated at least one of the cell lines at least as much as GABA itself	
CC(=O)[C@H]1CC[C@H]2[C@@H]3CC[C@H]4C[C@H](O)CC[C@]4(C)[C@H]3C(=O)C[C@]12C [5-alpha-pregnan-3alpha-ol-11,20-dione]	activated at least one of the cell lines at least as much as GABA itself	
C[C@]12CC[C@@H](O)C[C@@H]1CC[C@@H]1[C@@H]2CC[C@]2(C)C(=O)CC[C@@H]12 [Androsterone]		HTS hit: activated at least one of the GABAA cell lines at least as much as GABA itself [1]: identified
CN1C(=O)CCS(=O)(=O)C1c1ccc(Cl)cc1 (centres unmarked) [Chlormezanone]	identified	
OCCN(CCO)c1nc(N2CCCCC2)c2nc(N(CCO)CCO)nc(N3CCCCC3)c2n1 [Dipyridamole]	identified	
C=C[C@@]1(C)CC(=O)[C@]2(O)[C@@]3(C)[C@@H](O)CCC(C)(C)[C@@H]3[C@H](O)[C@H](OC(C)=O)[C@@]2(C)O1 [Forskolin]		EC50 (CFTR): 256 nM
NCCCC(=O)O [GABA]	activated at least one of the cell lines at least as much as GABA itself	
COc1cc(/C=C(\C#N)C(=O)c2ccc(O)c(O)c2)cc(I)c1O [I-OMe-Tyrphostin AG 538]	identified	
O=C(O)C1=CCNCC1 [Isoguvacine hydrochloride]	activated at least one of the cell lines at least as much as GABA itself	
NCc1cc(=O)[nH]o1 [Muscimol hydrobromide]	activated at least one of the cell lines at least as much as GABA itself	
O=C(Nc1ccc([N+](=O)[O-])cc1Cl)c1cc(Cl)ccc1O [Niclosamide]	identified	
O=S(=O)(O)C1CCNCC1 [Piperidine-4-sulphonic acid]	activated at least one of the cell lines at least as much as GABA itself	
CC(C)c1cccc(C(C)C)c1O [Propofol]		HTS hit: activated at least one of the GABAA cell lines at least as much as GABA itself [1]: activated at least one of the cell lines at least as much as GABA itself
CCCc1ccc(OC(=O)c2ccco2)cc1 [STE1, 4-propylphenyl 2-furoate]		participants who selected the sample containing STE1 as more salty [2]: 13 out of 15; activity identified during HTS of proteolyzed αβγ-ENaC (proteolyzed αβγ-ENaC): potentiator of proteolyzed αβγ-ENaC
CCCCNc1c(C(=O)OCC)c(C)nc2c1cnn2CC [Tracazolate]	activated at least one of the cell lines at least as much as GABA itself	
CC(C)(C)c1cc(C=C(C#N)C#N)cc(C(C)(C)C)c1O [Tyrphostin A9]	identified	
N=C(N)NC(=O)c1nc(Cl)c(N)nc1N [amiloride]		effect on the response of the αβγ-ENaC cell line to a sodium increase (αβγ-ENaC): inhibition of the response to a 75 mM increase in sodium concentration
Ivermectin	identified	
